Laboratory results reported in patent US20210147455A1 (SHAANXI SYNTHETIC PHARMACEUTICAL CO., LTD., priority 2018, published 2021).
Converted amounts (≈) assume the structure as drawn. Read-outs that look alike come from different tables or passages of the source.

Legend:
[1] = Urine sample
Description: (§1) The mice were purchased from Beijing Weili Tonghua Experimental Animal Technology Co., Ltd. Based on the weight, the mice were randomly divided into 5 groups, with each group including 3 animals.
(§2) Before the pharmacokinetic test, the mice were fasted for 16 hours. […] 200 μl of blood was collected at preset timepoint by jugular vein puncture after administration. For the animal group subjected to intravenous administration, blood was collected at minute 0, minute 15, minute 30, hour 1, hour 2, hour 4, hour 8 and hour 24 after administration. Urine was collected at hour 2, hour 4, hour 8, hour 12 and hour 24. The blood was collected in a sample tube containing EDTA and blood sample was immediately centrifuged at 4000 rpm at 4° C. for 5 minutes. The plasma was transferred to another sample tube and stored at minus 20° C.
(§3) The following method and apparatus were used:
(§4) Mobile phase: 100% of acetonitrile (3 mM ammonium acetate) and 100% of water (3 mM ammonium acetate) Quantitation method: internal standard method

in vivo = details: female, mouse, 1 mg/kg
Description: as §1, §2, §3, §4

[2] = Hygroscopicity study (Chinese Pharmacopoeia 2015, 9103); format: physicochemical; details: for Hygroscopic weight gain: 25° C.±1° C., saturated ammonium chloride solution, 24 hours; for Conclusion (hygroscopicity): after 24 hours
[3] = Stability experiments under 40° C.±2° C. and 75% R.H±5% R.H (accelerated test); format: physicochemical; details: 40° C./75% R.H
[4] = Stability experiments under 25° C.±2° C. and 65% R.H±5% R.H; details: 25° C./65% R.H
Text: • 1. […] The results are shown in detail in the following table.

[5] = background statement; cited from earlier work
[6] = day 5, High temperature of 40° C.
[7] = day 10, High temperature of 40° C.

CC[C@@H]([C@H](C)OP(=O)(O)O)n1ncn(-c2ccc(N3CCN(c4ccc(OC[C@@H]5CO[C@@](Cn6cncn6)(c6ccc(F)cc6F)C5)cc4)CC3)cc2)c1=O [Example 1, Posaconazole Phosphate Monocholinate]
Content (day 0): 99.87%
Description (day 0): White
Related substance (day 0): 0.13%
Content (day 5, High humidity of 92.5%): 99.86%
Description (day 5, High humidity of 92.5%): White
Related substance (day 5, High humidity of 92.5%): 0.14%
Content [6]: 99.87%
Description [6]: White
Related substance [6]: 0.13%
Content (day 5, Illumination of 4500LX): 99.87%
Description (day 5, Illumination of 4500LX): White
Related substance (day 5, Illumination of 4500LX): 0.13%
Content (day 10, High humidity of 92.5%): 99.86%
Description (day 10, High humidity of 92.5%): White
Related substance (day 10, High humidity of 92.5%): 0.14%
Content [7]: 99.85%
Description [7]: White
Related substance [7]: 0.15%
Content (day 10, Illumination of 4500LX): 99.86%
Description (day 10, Illumination of 4500LX): White
Related substance (day 10, Illumination of 4500LX): 0.14%
solubility (Solubility study; organic solvent or mixture, Solubility, Methanol, in methanol): 35000 µg/mL
solubility (Solubility study; water, Solubility, in water): 82000 µg/mL
Concentration of the compound in Example 1 ([1]; 0~2 h, 1 mg/kg intravenous): 149.1 ng/mL
Concentration of the compound in Example 1 ([1]; 2~4 h): 641.6 ng/mL
Concentration of the compound in Example 1 ([1]; 4~8 h): 973.0 ng/mL
Concentration of the compound in Example 1 ([1]; 8~12 h): 716.5 ng/mL
Concentration of the compound in Example 1 ([1]; 12~24 h): 400.9 ng/mL
concentration at 0.25 h (in vivo; plasma, iv): 5560 ng/mL
concentration at 0.5 h (in vivo; plasma, iv): 7040 ng/mL
concentration at 1 h (in vivo; plasma, iv): 7630 ng/mL
concentration at 2 h (in vivo; plasma, iv): 8270 ng/mL
concentration at 4 h (in vivo; plasma, iv): 7520 ng/mL
concentration at 8 h (in vivo; plasma, iv): 7780 ng/mL
concentration at 24 h (in vivo; plasma, iv): 7920 ng/mL
concentration at 24 h (in vivo; urine, intravenous): 0 ng/mL
Hygroscopic weight gain [2]: 0.12%
Conclusion (hygroscopicity) [2]: No hygroscopicity
Content ([3]; month 0): 99.87%
Description ([3]; month 0): White
Related substance ([3]; month 0): 0.13%
Content ([3]; month 1): 99.87%
Description ([3]; month 1): White
Related substance ([3]; month 1): 0.13%
Content ([3]; month 2): 99.86%
Description ([3]; month 2): White
Related substance ([3]; month 2): 0.14%
Content ([3]; month 3): 99.85%
Description ([3]; month 3): White
Related substance ([3]; month 3): 0.15%
Content ([3]; month 6): 99.84%
Description ([3]; month 6): White
Related substance ([3]; month 6): 0.16%
stability (conclusion in words) ([4]; up to month 24): higher than that of the compounds in Comparative examples 1˜11
Content ([4]; month 0): 99.87%
Description ([4]; month 0): White
Related substance ([4]; month 0): 0.13%
Content ([4]; month 3): 99.87%
Description ([4]; month 3): White
Related substance ([4]; month 3): 0.13%
Content ([4]; month 6): 99.87%
Description ([4]; month 6): White
Related substance ([4]; month 6): 0.13%
Content ([4]; month 9): 99.85%
Description ([4]; month 9): White
Related substance ([4]; month 9): 0.15%
Content ([4]; month 12): 99.84%
Description ([4]; month 12): White
Related substance ([4]; month 12): 0.16%
Content ([4]; month 24): 99.80%
Description ([4]; month 24): White
Related substance ([4]; month 24): 0.20%

CC[C@@H]([C@H](C)OP(=O)(O)O)n1ncn(-c2ccc(N3CCN(c4ccc(OC[C@@H]5CO[C@@](Cn6cncn6)(c6ccc(F)cc6F)C5)cc4)CC3)cc2)c1=O [Example 3, Posaconazole Phosphate Monocholinate Pentahydrate]
Content (day 0): 99.87%
Description (day 0): White
Related substance (day 0): 0.13%
Content (day 5, High humidity of 92.5%): 99.86%
Description (day 5, High humidity of 92.5%): White
Related substance (day 5, High humidity of 92.5%): 0.14%
Content [6]: 99.87%
Description [6]: White
Related substance [6]: 0.13%
Content (day 5, Illumination of 4500LX): 99.87%
Description (day 5, Illumination of 4500LX): White
Related substance (day 5, Illumination of 4500LX): 0.13%
Content (day 10, High humidity of 92.5%): 99.86%
Description (day 10, High humidity of 92.5%): White
Related substance (day 10, High humidity of 92.5%): 0.14%
Content [7]: 99.85%
Description [7]: White
Related substance [7]: 0.15%
Content (day 10, Illumination of 4500LX): 99.86%
Description (day 10, Illumination of 4500LX): White
Related substance (day 10, Illumination of 4500LX): 0.14%
Hygroscopic weight gain [2]: 0.15%
Conclusion (hygroscopicity) [2]: No hygroscopicity
Content ([3]; month 0): 99.87%
Description ([3]; month 0): White
Related substance ([3]; month 0): 0.13%
Content ([3]; month 1): 99.87%
Description ([3]; month 1): White
Related substance ([3]; month 1): 0.13%
Content ([3]; month 2): 99.87%
Description ([3]; month 2): White
Related substance ([3]; month 2): 0.13%
Content ([3]; month 3): 99.86%
Description ([3]; month 3): White
Related substance ([3]; month 3): 0.14%
Content ([3]; month 6): 99.85%
Description ([3]; month 6): White
Related substance ([3]; month 6): 0.15%
Content ([4]; month 0): 99.37%
Description ([4]; month 0): White
Related substance ([4]; month 0): 0.13%
Content ([4]; month 3): 99.87%
Description ([4]; month 3): White
Related substance ([4]; month 3): 0.13%
Content ([4]; month 6): 99.87%
Description ([4]; month 6): White
Related substance ([4]; month 6): 0.13%
Content ([4]; month 9): 99.84%
Description ([4]; month 9): White
Related substance ([4]; month 9): 0.16%
Content ([4]; month 12): 99.84%
Description ([4]; month 12): White
Related substance ([4]; month 12): 0.16%
Content ([4]; month 24): 99.79%
Description ([4]; month 24): White
Related substance ([4]; month 24): 0.21%

CC[C@@H]([C@H](C)O)n1ncn(-c2ccc(N3CCN(c4ccc(OC[C@@H]5CO[C@@](Cn6cncn6)(c6ccc(F)cc6F)C5)cc4)CC3)cc2)c1=O [Posaconazole]
solubility (Solubility study; isopropanol, organic solvent or mixture): 100 µg/mL (≈ 143 µM)
solubility (Solubility study; methanol, organic solvent or mixture): 60 µg/mL (≈ 85.6 µM)
solubility (Solubility study; water): 50 µg/mL (≈ 71.3 µM)

sulfobutyl ether-β-cyclodextrin
preclinical toxicology finding [5]: causes vacuolization of the urothelial cells and activation of the macrophages in the liver and lung
